29 compounds from ChEMBL document CHEMBL5104197, “Structure-Based Optimization of Coumestan Derivatives as Polyketide Synthase 13-Thioesterase(Pks13-TE) Inhibitors with Improved hERG Profiles for Mycobacterium tuberculosis Treatment” (J Med Chem, 2022) can be followed below.

≈ marks a conversion by molar mass, not a printed value. Calls of active or inactive are those of the source. The calls are words filed in the database; no cut-off is given here.

The subject of data set [1] is Mycobacterium tuberculosis. Kind of data set: microbe, parasite or virus in culture. The following applies: H37Rv, 168 h.
Data set [2] concerns Mycobacterium tuberculosis. Briefly: Binding affinity to wild type Mycobacterium tuberculosis Pks13-TE N1640 expressed in Escherichia coli BL21(DE3) pLysS assessed as change in melting temperature at 1:10 compound to protein ratio by nanoDSF thermal stability analysis.
Data set [3] in a line: Metabolic stability in human liver microsomes assessed as microsomal intrinsic clearance measured after 60 mins by LC-MS/MS analysis. The following applies: read-out: CLH. It counts as ADME, Microsome.
Data set [4] in a line: Metabolic stability in human liver microsomes assessed as liver intrinsic clearance measured after 60 mins by LC-MS/MS analysis. It counts as ADME, Microsome. The settings on record: read-out: CLH.
The nature of data set [5]: Cytotoxicity against African green monkey Vero cells. In kind it is toxicity, cell-based, Chlorocebus sabaeus.
Data set [6] can be described thus: Metabolic stability in human liver microsomes assessed as half-life measured after 60 mins by LC-MS/MS analysis. It counts as ADME, Microsome.
For data set [7], the system named is Mycobacterium tuberculosis. It counts as functional, organism-based. The following applies: H37Rv, dose 100.0 mg/kg, route po, time 7.0 day.
Data set [8] concerns Mycobacterium tuberculosis. In kind it is functional, organism-based. The settings on record: H37Rv, dose 100.0 mg/kg, route po, time 7.0 day. The source holds these as a separate data set.
Data set [9] can be described thus: Metabolic stability in human liver microsomes assessed as compound remaining measured after 60 mins by LC-MS/MS analysis. It counts as ADME, Microsome. The settings on record: read-out: Stability.
Data set [10] deals with Mycobacterium tuberculosis. In kind it is functional, Vero. The settings on record: V4207, 168 h, time 7 day.
Data set [11] deals with Mycobacterium tuberculosis. Kind of data set: Binding affinity to wild type Mycobacterium tuberculosis Pks13-TE N1640 expressed in Escherichia coli BL21(DE3) pLysS assessed as change in melting temperature at 1:5 compound to protein ratio by nanoDSF thermal stability analysis.
A short description of data set [12]: Selectivity index, ratio of CC50 for African green monkey Vero cells to MIC90 for Mycobacterium tuberculosis H37Rv. It counts as toxicity. The following applies: read-out: Selectivity Index.

In data set [1], `COc1ccc2c(c1)oc(=O)c1c2oc2ccc(O)c(CN3CCC(F)(F)C3)c21` came in with an MIC90 of over 64 µg/mL.

`O=C(c1c(O)ccc2oc3c4ccc(O)cc4oc(=O)c3c12)N1CCCCC1` displayed an MIC90 in data set [1] of over 64 µg/mL.

On to `O=c1oc2cc(O)ccc2c2oc3ccc4c(c3c12)CN(C1CC1)CO4`, for which the MIC90 in data set [1] worked out at 0.125 µg/mL (≈ 0.358 µM).

In the case of `CO[C@H]1/C=C/O[C@@]2(C)Oc3c(C)c(O)c4c(O)c(c(/C=N/N5CCN(C)CC5)c(O)c4c3C2=O)NC(=O)/C(C)=C\C=C\[C@H](C)[C@H](O)[C@@H](C)[C@@H](O)[C@@H](C)[C@H](OC(C)=O)[C@@H]1C` [RIFAMPIN], the MIC90 in data set [1] came out at 0.125 µg/mL (≈ 0.152 µM).

For `O=c1oc2cc(O)ccc2c2oc3ccc(O)c(CNC4CCCCC4)c3c12`, the MIC90 in data set [1] was found to be 0.25 µg/mL (≈ 0.659 µM).

The compound `COC(=O)c1c(NC(=O)c2c(F)c(F)c(F)c(F)c2F)sc2c1CCCCC2` returned an MIC in [1] of 1 µM (≈ 0.419 µg/mL).

On to `O=c1oc2cc(O)ccc2c2oc3ccc(O)c(CN4CCC(F)CC4)c3c12`, for which the MIC90 in data set [1] worked out at 0.0625 µg/mL (≈ 0.163 µM); in [10], 0.125 µg/mL (≈ 0.326 µM). In addition, the values for the ΔTm in data set [2] and in [11] were 7.6 °C and 8.8 °C, respectively. Besides, the figures for the CLint scaled in data set [3] and in data set [4] were 23.5 mL/min/kg and 21 mL/min/kg, respectively. In [5], the IC50 was 4 µg/mL (≈ 10.4 µM). Further, in data set [6], the half-life was determined as 0.992 h. For the same compound, the result in data set [7] and in data set [8] was Active. Besides, the remaining at 1 h in data set [9] was 47.4%.

In data set [1], `O=c1oc2cc(O)ccc2c2oc3ccc(O)c(CN4CC[C@H](F)C4)c3c12` returned an MIC90 of 0.125 µg/mL (≈ 0.338 µM).

In data set [1], `O=c1oc2cc(O)ccc2c2oc3ccc(O)c(CN4CCC(F)(F)CC4)c3c12` yielded an MIC90 of 1 µg/mL (≈ 2.49 µM).

With `O=c1oc2cc(O)ccc2c2oc3ccc(O)c(CN4CCC5(CC4)CC5)c3c12`, the MIC90 in data set [1] is 0.25 µg/mL (≈ 0.639 µM).

Compound `O=c1oc2cc(O)ccc2c2oc3ccc(O)c(CN4CC[C@@H](F)C4)c3c12` returned an MIC90 in data set [1] of 0.5 µg/mL (≈ 1.35 µM).

`CC(C)CCNCc1c(O)ccc2oc3c4ccc(O)cc4oc(=O)c3c12`: the MIC90 in [1] came to 0.125 µg/mL (≈ 0.34 µM).

In data set [1], `CC1(C)CCN(Cc2c(O)ccc3oc4c5ccc(O)cc5oc(=O)c4c23)CC1` had an MIC90 of 0.25 µg/mL (≈ 0.635 µM).

As for `O=c1oc2cc(O)ccc2c2oc3ccc4c(c3c12)CN(CC1CC1)CO4`, the MIC90 in data set [1] was found to be 0.0625 µg/mL (≈ 0.172 µM). In addition, the ΔTm in data set [2] stood at 5.3 °C; in data set [11] it was 5.4 °C.

`COc1ccc2c(c1)oc(=O)c1c2oc2ccc(O)c(CN3CCC(Br)CC3)c21` came in with an MIC90 in [1] of over 64 µg/mL.

In data set [1], `NNC(=O)c1ccncc1` [ISONIAZID] gave an MIC90 of 0.04 µg/mL (≈ 0.292 µM).

Turning to `COc1ccc2c(c1)oc(=O)c1c2oc2ccc(O)c(CN3CCC(C)(C)CC3)c21`, the MIC90 in [1] stood at 8 µg/mL (≈ 19.6 µM).

Regarding `O=c1oc2cc(O)ccc2c2oc3ccc(O)c(CN4CCCCC4)c3c12`, in data set [1], the MIC90 was found to be 0.0039 µg/mL (≈ 0.0107 µM). Further, the ΔTm in data set [2] was determined as 7.2 °C; in data set [11], 7 °C. Also, the CLint scaled in [3] amounted to 11.5 mL/min/kg; in [4], 10.4 mL/min/kg. Moreover, the half-life in [6] came out at 2 h.

`O=c1oc2cc(O)ccc2c2oc3ccc(O)c(CNC4CCCC4)c3c12` came in with an MIC90 in data set [1] of 0.0039 µg/mL (≈ 0.0107 µM).

Compound `O=c1oc2cc(O)ccc2c2oc3ccc(O)c(CN4CCC(F)(F)C4)c3c12` came in with an MIC90 in data set [1] of over 64 µg/mL.

`O=c1oc2cc(O)ccc2c2oc3ccc(O)c(CN4CCCC(F)C4)c3c12` (stereo unspecified) returned an MIC90 in [1] of 0.25 µg/mL (≈ 0.652 µM).

In [1], `O=c1oc2cc(O)ccc2c2oc3ccc(O)c(CN4CCC(Br)CC4)c3c12` yielded an MIC90 of 0.125 µg/mL (≈ 0.281 µM).

The compound `CC(C)CCN1COc2ccc3oc4c5ccc(O)cc5oc(=O)c4c3c2C1` came in with an MIC90 in data set [1] of 0.0625 µg/mL (≈ 0.165 µM).

In data set [1], `O=c1oc2cc(O)ccc2c2oc3ccc(O)c(CNCc4ccccc4)c3c12` showed an MIC90 of 1 µg/mL (≈ 2.58 µM).

As to `O=c1oc2cc(O)ccc2c2oc3ccc4c(c3c12)CN(C1CCCC1)CO4`, the MIC90 was found to be 0.0039 µg/mL (≈ 0.0103 µM) in data set [1] and 0.0078 µg/mL (≈ 0.0207 µM) in [10]. In addition, the ΔTm in [2] amounted to 8.4 °C; in data set [11] it was 8.1 °C. Also, the CLint scaled in data set [3] was under 9.6 mL/min/kg. Moreover, the selectivity ratio in [12] amounted to 32. The same compound displayed an IC50 in data set [5] of 0.125 µg/mL (≈ 0.331 µM). In addition, the half-life in data set [6] was over 2.42 h. Further, the outcome in [7] and in data set [8] was Active. Moreover, the remaining at 1 h in data set [9] is 80.9%.

In turn, `CC[C@@H](CO)NCCN[C@@H](CC)CO` [ETHAMBUTOL] gave an MIC90 in data set [1] of 1 µg/mL (≈ 4.89 µM).

`O=C1CCCCN1Cc1c(O)ccc2oc3c4ccc(O)cc4oc(=O)c3c12` yielded an MIC90 in data set [1] of over 64 µg/mL.

`O=c1oc2cc(O)ccc2c2oc3ccc(O)c(CN4CCCC(F)(F)C4)c3c12` yielded an MIC90 in data set [1] of over 64 µg/mL.

In [1], `COc1ccc2c(c1)oc(=O)c1c2oc2ccc(O)c(CN3CCC(F)(F)CC3)c21` had an MIC90 of over 64 µg/mL.
